Measurements: PubChem BioAssay AID330 (DTP/NCI, 2004)
Values joined by “and” are separate entries in the source; they are usually repeats but may differ in a detail not shown here. Identical values can stand only once. Inconclusive results and toxic doses are left out. The calls were made as follows: active = survival T/C of 150% or more; inactive = T/C below 125% in these data.

Test system: P388 leukemia ip, CD2F1 mice, survival T/C
Experiment: NCI In Vivo Anticancer Drug Screen. Data for tumor model P388 Leukemia (intraperitoneal) in CD2F1 (CDF1) mice
Conditions: endpoint: median survival time, higher = longer survival
In short: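 Mice carrying the transplanted tumor received test compound or vehicle. Survival was recorded in each group, and the value is the treated-group measurement divided by that of the vehicle-treated control group.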

[1] = dose: 50.0 mg/kg/injection, schedule: Q01DX009 (ip), vehicle: saline with Tween-80
[2] = dose: 100.0 mg/kg/injection, schedule: Q01DX009 (ip), vehicle: saline with Tween-80
[3] = dose: 200.0 mg/kg/injection, schedule: Q01DX009 (ip), vehicle: saline with Tween-80
[4] = dose: 12.5 mg/kg/injection, schedule: Q01DX005 (ip), vehicle: saline
[5] = dose: 25.0 mg/kg/injection, schedule: Q01DX005 (ip), vehicle: saline
[6] = dose: 50.0 mg/kg/injection, schedule: Q01DX005 (ip), vehicle: saline
[7] = dose: 50.0 mg/kg/injection, schedule: Q01DX005 (ip), vehicle: saline with Tween-80

Measured: T/C

CC(=O)N1CCNC(=O)/C1=C1\CCOC1=O
inactive: [1] 99 % of control | [2] 101 % of control | [3] 110 % of control

Cc1ccc2c(c1)sc1nnc(S(C)(=O)=O)n12
inactive: dose: 12.5 mg/kg/injection, schedule: Q01DX009 (ip), vehicle: Klucel (hydroxypropylcellulose) (HPC) 118 % of control | dose: 25.0 mg/kg/injection, schedule: Q01DX009 (ip), vehicle: Klucel (hydroxypropylcellulose) (HPC) 110 % of control | dose: 50.0 mg/kg/injection, schedule: Q01DX009 (ip), vehicle: Klucel (hydroxypropylcellulose) (HPC) 102 % of control and 118 % of control | dose: 100.0 mg/kg/injection, schedule: Q01DX009 (ip), vehicle: Klucel (hydroxypropylcellulose) (HPC) 111 % of control

CN(C)c1ccc(C(=O)C(O)c2ccccc2Cl)cc1 (configuration not stated)
inactive: dose: 25.0 mg/kg/injection, schedule: Q01DX009 (ip), vehicle: saline with Tween-80 104 % of control | [1] 96 % of control | [2] 96 % of control | [3] 98 % of control

O=S1(=O)C[CH-]C1.[C-]#[O+].[C-]#[O+].[C-]#[O+].[W].[c-]1[c-][c-][cH-][c-]1
inactive: dose: 0.78 mg/kg/injection, schedule: Q01DX009 (ip), vehicle: saline with Tween-80 98 % of control | dose: 1.56 mg/kg/injection, schedule: Q01DX009 (ip), vehicle: saline with Tween-80 93 % of control | dose: 3.13 mg/kg/injection, schedule: Q01DX009 (ip), vehicle: saline with Tween-80 94 % of control | dose: 6.25 mg/kg/injection, schedule: Q01DX009 (ip), vehicle: saline with Tween-80 93 % of control

CC(=O)OCC1OC([Se-])C(OC(C)=O)C(OC(C)=O)C1OC(C)=O.N#CCC[PH+](CCC#N)CCC#N.[Au+] (configuration not stated)
inactive: dose: 60.0 mg/kg/injection, schedule: Q01DX005 (ip), vehicle: saline with Tween-80 98 % of control

CCN(CC)CCCCCCNc1cc(OC)c(Cl)c2cccnc12
inactive: dose: 6.25 mg/kg/injection, schedule: Q01DX005 (ip), vehicle: saline 102 % of control | [4] 95 % of control | [5] 98 % of control | [6] 115 % of control

COc1cc(NCC(C)(O)CN(CC(C)C)C(C)C)c2ncccc2c1 (configuration not stated)
inactive: [4] 97 % of control | [5] 103 % of control | [6] 106 % of control and 109 % of control

COc1c(O)ccc2c1CCCCC2=O
inactive: [2] 103 % of control | [3] 110 % of control | dose: 400.0 mg/kg/injection, schedule: Q01DX009 (ip), vehicle: saline with Tween-80 106 % of control

O=C(SCNS(=O)(=O)c1ccccc1)c1ccccc1
inactive: dose: 100.0 mg/kg/injection, schedule: Q01DX001 (ip), vehicle: Klucel (hydroxypropylcellulose) (HPC) 111 % of control | dose: 200.0 mg/kg/injection, schedule: Q01DX001 (ip), vehicle: Klucel (hydroxypropylcellulose) (HPC) 113 % of control | dose: 400.0 mg/kg/injection, schedule: Q01DX001 (ip), vehicle: Klucel (hydroxypropylcellulose) (HPC) 114 % of control

COC1=CC(=O)C(c2cc(O)c(OC)cc2O)=CC1=O
inactive: dose: 12.0 mg/kg/injection, schedule: Q01DX005 (ip), vehicle: saline with Tween-80 114 % of control | dose: 25.0 mg/kg/injection, schedule: Q01DX005 (ip), vehicle: saline with Tween-80 108 % of control | [7] 99 % of control

CN(C)CC1CCC1N1c2ccccc2Sc2ccc(Cl)cc21 (configuration not stated)
inactive: dose: 50.0 mg/kg/injection, schedule: Q04DX003 (ip), vehicle: Klucel (hydroxypropylcellulose) (HPC) 105 % of control | dose: 100.0 mg/kg/injection, schedule: Q04DX003 (ip), vehicle: Klucel (hydroxypropylcellulose) (HPC) 100 % of control | dose: 200.0 mg/kg/injection, schedule: Q04DX003 (ip), vehicle: Klucel (hydroxypropylcellulose) (HPC) 98 % of control

O=C(/C(O)=C(\O)C(=O)N(C1CCCCC1)C1CCCCC1)N(C1CCCCC1)C1CCCCC1
inactive: dose: 25.0 mg/kg/injection, schedule: Q01DX005 (ip), vehicle: Klucel (hydroxypropylcellulose) (HPC) 100 % of control | dose: 50.0 mg/kg/injection, schedule: Q01DX005 (ip), vehicle: Klucel (hydroxypropylcellulose) (HPC) 96 % of control | dose: 100.0 mg/kg/injection, schedule: Q01DX005 (ip), vehicle: Klucel (hydroxypropylcellulose) (HPC) 100 % of control | dose: 200.0 mg/kg/injection, schedule: Q01DX005 (ip), vehicle: Klucel (hydroxypropylcellulose) (HPC) 92 % of control

O=c1c2[nH]c3ccccc3sc=2c(=O)n1-c1c(F)c(F)c(F)c(F)c1F
inactive: [7] 109 % of control | dose: 100.0 mg/kg/injection, schedule: Q01DX005 (ip), vehicle: saline with Tween-80 103 % of control | dose: 200.0 mg/kg/injection, schedule: Q01DX005 (ip), vehicle: saline with Tween-80 100 % of control
